Patent US8163748B2, “s-Triazine compounds, pharmaceutical compositions and method of using the same” (New York University, priority 2007, dated 2012)
Converted amounts (≈) assume the structure as drawn.

Legend:
[1] = test system: Bacillus subtilis (ATCC 6633); assay: broth microdilution antibacterial testing; type: cell-based; conditions: for MIC50: Bacillus subtilis, ATCC6633
calcein dye leakage = type: biochemical; conditions: ampicillin 70 μM
Description: FIG. 1 graphically depicts the results of the measurement of the ability of a triazine compound of the invention to induce leakage of calcein, entrapped within the interior of large unilamellar vesicles of model membrane POPG. The extent of leakage of encapsulated calcein was detected by its fluorescence at 515 nm, with 100% leakage calibrated by addition of 0.2% Triton X-100.
The method of preparation of dye-encapsulated vesicles has been reported in detail. Lasch, V.; Weissig, M. Brandl in Liposomes: a Practical Approach Eds.: Taylor, K. M. G.; Craig, D.Q.M. Oxford University Press, Oxford, 2003; pp. 10-12. The results are graphically presented in FIG. 1, which presents the results of calcein leakage induced by 1% Triton, C2 (50 μM), h9 (90 μM) and ampicillin (70 μM). The fraction of leakage was calculated from the fluorescence intensity at 515 nm, with 100% leakage calibrated by addition of 1% Triton X-100.

`CCCCN(CCCC)CCCNc1nc(NC2CCC2)nc(NC23CC4CC(CC(C4)C2)C3)n1` [A2 (Library 5)] showed an MIC50 [1] of 7.9 µM (≈ 3.82 µg/mL).
In the case of `CCCCN(CCCC)CCCNc1nc(NC2CCCCCCCCCCC2)nc(NC23CC4CC(CC(C4)C2)C3)n1` [A5 (Library 5)], the MIC50 [1] is reported as 15.9 µM (≈ 9.48 µg/mL) and the “activity decrease comparing to ring size 7 or 8 compounds” value ([1]; library 5, ring size 12, B. subtilis) is reported as roughly 8 fold.
`CCCCN(CCCC)CCCNc1nc(NC2CC3CCC2C3)nc(NC23CC4CC(CC(C4)C2)C3)n1` (stereo not drawn) [A6 (Library 5)] gave an MIC50 [1] of 7.6 µM (≈ 3.98 µg/mL).
With `CCCCN(CCCC)CCCNc1nc(NC23CC4CC(CC(C4)C2)C3)nc(NC23CC4CC(CC(C4)C2)C3)n1` [A8 (Library 5)] the MIC50 [1] was 39 µM (≈ 22 µg/mL).
With `CCCCN(CCCC)CCCNc1nc(NC23CC4CC(CC(C4)C2)C3)nc(N(CCC)CC2CC2)n1` [A10 (Library 5)] the MIC50 [1] was 5 µM (≈ 2.63 µg/mL).
For `CCN(CC)CCCNc1nc(NCc2ccc3c(c2)OCO3)nc(NC23CC4CC(CC(C4)C2)C3)n1` [C4 (Library 5)], the MIC50 [1] was 3.5 µM (≈ 1.78 µg/mL).
For `CCCCN(CCCC)CCCNc1nc(NC2CC2)nc(NC23CC4CC(CC(C4)C2)C3)n1` [Compound A1], the MIC50 [1] was 16.4 µM (≈ 7.7 µg/mL).
For `CCCCN(CCCC)CCCNc1nc(NC23CC4CC(CC(C4)C2)C3)nc(N(CCCC)CCCC)n1` [Compound A9], the MIC50 [1] was 4.4 µM (≈ 2.38 µg/mL).
`CCN(CC)CCCNc1nc(NCc2ccccc2)nc(NC23CC4CC(CC(C4)C2)C3)n1` [Compound C1] showed an MIC50 [1] of 10.6 µM (≈ 4.91 µg/mL).
With `CC1(C)S[C@@H]2[C@H](NC(=O)[C@H](N)c3ccccc3)C(=O)N2[C@H]1C(=O)O` [ampicillin] the “calcein dye leakage (in words)” value (calcein dye leakage) was “neither ampicillin nor compound C2 caused dye leakage”.
Work on `CN(C)CCNc1nc(NC2CCCCCC2)nc(NC23CC4CC(CC(C4)C2)C3)n1` [b9 (Library 5)] yielded an MIC50 [1] of 7 µM (≈ 2.99 µg/mL).
`CCN(CC)CCNc1nc(NC2CCCCCC2)nc(NC23CC4CC(CC(C4)C2)C3)n1` [c9 (Library 5)] gave an MIC50 [1] of 5.6 µM (≈ 2.55 µg/mL).
For `CN(C)CCCNc1nc(NC2CCCCCC2)nc(NC23CC4CC(CC(C4)C2)C3)n1` [d9 (Library 5)], the MIC50 [1] was 5.7 µM (≈ 2.52 µg/mL).
`NCCNc1nc(NC2CCCCCC2)nc(NC23CC4CC(CC(C4)C2)C3)n1` [e9 (Library 5)] showed an MIC50 [1] of 5.9 µM (≈ 2.36 µg/mL).
`NCCCNc1nc(NC2CCCCCC2)nc(NC23CC4CC(CC(C4)C2)C3)n1` [f9 (Library 5)] gave an MIC50 [1] of 4.7 µM (≈ 1.94 µg/mL).
With `CN1CCCC1CCNc1nc(NC2CCCCCC2)nc(NC23CC4CC(CC(C4)C2)C3)n1` (stereo not drawn) [g9 (Library 5)] the MIC50 [1] was 5.9 µM (≈ 2.76 µg/mL).
For `CN(C)c1nc(NC2CCCCCC2)nc(NC23CC4CC(CC(C4)C2)C3)n1` [h9 (Library 5)], the “antimicrobial activity (in words)” value ([1]; library 5 compound used as control in dye leakage) was “little antimicrobial activity”.
